Experimental data published in the NIST ThermoML archive (doi:10.1021/je3007666).
± gives the expanded uncertainty stated by the source.

Experiment: relative permittivity at zero frequency (dimensionless); xn = mol fraction of the nth substance listed
Details: 100 kPa, Liquid, Dielectrometer

CCC(C)O (stereo not given) [butan-2-ol] + CCCCO
relative permittivity at zero frequency (288.15 K, x1 = 0.0501): 18.97 ± 0.06 | relative permittivity at zero frequency (288.15 K, x1 = 0.0987): 18.93 ± 0.06 | relative permittivity at zero frequency (288.15 K, x1 = 0.1506): 18.89 ± 0.06 | relative permittivity at zero frequency (288.15 K, x1 = 0.1998): 18.86 ± 0.06 | relative permittivity at zero frequency (288.15 K, x1 = 0.2503): 18.82 ± 0.06 | relative permittivity at zero frequency (288.15 K, x1 = 0.2986): 18.79 ± 0.06 | relative permittivity at zero frequency (288.15 K, x1 = 0.3512): 18.75 ± 0.06 | relative permittivity at zero frequency (288.15 K, x1 = 0.3977): 18.72 ± 0.06 | relative permittivity at zero frequency (288.15 K, x1 = 0.4497): 18.69 ± 0.06 | relative permittivity at zero frequency (288.15 K, x1 = 0.4998): 18.67 ± 0.06 | relative permittivity at zero frequency (288.15 K, x1 = 0.5501): 18.64 ± 0.06 | relative permittivity at zero frequency (288.15 K, x1 = 0.6011): 18.61 ± 0.06 | relative permittivity at zero frequency (288.15 K, x1 = 0.649): 18.59 ± 0.06 | relative permittivity at zero frequency (288.15 K, x1 = 0.7005): 18.57 ± 0.06 | relative permittivity at zero frequency (288.15 K, x1 = 0.7511): 18.55 ± 0.06 | relative permittivity at zero frequency (288.15 K, x1 = 0.7986): 18.53 ± 0.06 | relative permittivity at zero frequency (288.15 K, x1 = 0.8498): 18.51 ± 0.06 | relative permittivity at zero frequency (288.15 K, x1 = 0.9006): 18.5 ± 0.06 | relative permittivity at zero frequency (288.15 K, x1 = 0.9487): 18.48 ± 0.06 | relative permittivity at zero frequency (288.15 K, x1 = 1): 18.47 ± 0.06 | relative permittivity at zero frequency (293.15 K, x1 = 0.0501): 18.24 ± 0.06 | relative permittivity at zero frequency (293.15 K, x1 = 0.0987): 18.2 ± 0.06 | relative permittivity at zero frequency (293.15 K, x1 = 0.1506): 18.15 ± 0.06 | relative permittivity at zero frequency (293.15 K, x1 = 0.1998): 18.11 ± 0.06 | relative permittivity at zero frequency (293.15 K, x1 = 0.2503): 18.07 ± 0.06 | relative permittivity at zero frequency (293.15 K, x1 = 0.2986): 18.03 ± 0.06 | relative permittivity at zero frequency (293.15 K, x1 = 0.3512): 17.99 ± 0.06 | relative permittivity at zero frequency (293.15 K, x1 = 0.3977): 17.95 ± 0.06 | relative permittivity at zero frequency (293.15 K, x1 = 0.4497): 17.91 ± 0.06 | relative permittivity at zero frequency (293.15 K, x1 = 0.4998): 17.87 ± 0.06 | relative permittivity at zero frequency (293.15 K, x1 = 0.5501): 17.83 ± 0.06 | relative permittivity at zero frequency (293.15 K, x1 = 0.6011): 17.79 ± 0.06 | relative permittivity at zero frequency (293.15 K, x1 = 0.649): 17.76 ± 0.06 | relative permittivity at zero frequency (293.15 K, x1 = 0.7005): 17.72 ± 0.06 | relative permittivity at zero frequency (293.15 K, x1 = 0.7511): 17.68 ± 0.06 | relative permittivity at zero frequency (293.15 K, x1 = 0.7986): 17.65 ± 0.06 | relative permittivity at zero frequency (293.15 K, x1 = 0.8498): 17.62 ± 0.06 | relative permittivity at zero frequency (293.15 K, x1 = 0.9006): 17.58 ± 0.06 | relative permittivity at zero frequency (293.15 K, x1 = 0.9487): 17.55 ± 0.06 | relative permittivity at zero frequency (293.15 K, x1 = 1): 17.51 ± 0.06 | relative permittivity at zero frequency (298.15 K, x1 = 0.0501): 17.54 ± 0.06 | relative permittivity at zero frequency (298.15 K, x1 = 0.0987): 17.49 ± 0.06 | relative permittivity at zero frequency (298.15 K, x1 = 0.1506): 17.44 ± 0.06 | relative permittivity at zero frequency (298.15 K, x1 = 0.1998): 17.4 ± 0.06 | relative permittivity at zero frequency (298.15 K, x1 = 0.2503): 17.35 ± 0.06 | relative permittivity at zero frequency (298.15 K, x1 = 0.2986): 17.3 ± 0.06 | relative permittivity at zero frequency (298.15 K, x1 = 0.3512): 17.25 ± 0.06 | relative permittivity at zero frequency (298.15 K, x1 = 0.3977): 17.2 ± 0.06 | relative permittivity at zero frequency (298.15 K, x1 = 0.4497): 17.16 ± 0.06 | relative permittivity at zero frequency (298.15 K, x1 = 0.4998): 17.11 ± 0.06 | relative permittivity at zero frequency (298.15 K, x1 = 0.5501): 17.06 ± 0.06 | relative permittivity at zero frequency (298.15 K, x1 = 0.6011): 17.01 ± 0.06 | relative permittivity at zero frequency (298.15 K, x1 = 0.649): 16.96 ± 0.06 | relative permittivity at zero frequency (298.15 K, x1 = 0.7005): 16.91 ± 0.06 | relative permittivity at zero frequency (298.15 K, x1 = 0.7511): 16.86 ± 0.06 | relative permittivity at zero frequency (298.15 K, x1 = 0.7986): 16.81 ± 0.06 | relative permittivity at zero frequency (298.15 K, x1 = 0.8498): 16.76 ± 0.06 | relative permittivity at zero frequency (298.15 K, x1 = 0.9006): 16.71 ± 0.06 | relative permittivity at zero frequency (298.15 K, x1 = 0.9487): 16.66 ± 0.06 | relative permittivity at zero frequency (298.15 K, x1 = 1): 16.6 ± 0.06 | relative permittivity at zero frequency (303.15 K, x1 = 0.0501): 16.86 ± 0.06 | relative permittivity at zero frequency (303.15 K, x1 = 0.0987): 16.81 ± 0.06 | relative permittivity at zero frequency (303.15 K, x1 = 0.1506): 16.76 ± 0.06 | relative permittivity at zero frequency (303.15 K, x1 = 0.1998): 16.71 ± 0.06 | relative permittivity at zero frequency (303.15 K, x1 = 0.2503): 16.65 ± 0.06 | relative permittivity at zero frequency (303.15 K, x1 = 0.2986): 16.6 ± 0.06 | relative permittivity at zero frequency (303.15 K, x1 = 0.3512): 16.54 ± 0.06 | relative permittivity at zero frequency (303.15 K, x1 = 0.3977): 16.49 ± 0.06 | relative permittivity at zero frequency (303.15 K, x1 = 0.4497): 16.43 ± 0.06 | relative permittivity at zero frequency (303.15 K, x1 = 0.4998): 16.37 ± 0.06 | relative permittivity at zero frequency (303.15 K, x1 = 0.5501): 16.32 ± 0.06 | relative permittivity at zero frequency (303.15 K, x1 = 0.6011): 16.26 ± 0.06 | relative permittivity at zero frequency (303.15 K, x1 = 0.649): 16.2 ± 0.06 | relative permittivity at zero frequency (303.15 K, x1 = 0.7005): 16.14 ± 0.06 | relative permittivity at zero frequency (303.15 K, x1 = 0.7511): 16.07 ± 0.06 | relative permittivity at zero frequency (303.15 K, x1 = 0.7986): 16.01 ± 0.06 | relative permittivity at zero frequency (303.15 K, x1 = 0.8498): 15.95 ± 0.06 | relative permittivity at zero frequency (303.15 K, x1 = 0.9006): 15.88 ± 0.06 | relative permittivity at zero frequency (303.15 K, x1 = 0.9487): 15.82 ± 0.06 | relative permittivity at zero frequency (303.15 K, x1 = 1): 15.75 ± 0.06 | relative permittivity at zero frequency (308.15 K, x1 = 0.0501): 16.21 ± 0.06 | relative permittivity at zero frequency (308.15 K, x1 = 0.0987): 16.16 ± 0.06 | relative permittivity at zero frequency (308.15 K, x1 = 0.1506): 16.1 ± 0.06 | relative permittivity at zero frequency (308.15 K, x1 = 0.1998): 16.05 ± 0.06 | relative permittivity at zero frequency (308.15 K, x1 = 0.2503): 15.99 ± 0.06 | relative permittivity at zero frequency (308.15 K, x1 = 0.2986): 15.93 ± 0.06 | relative permittivity at zero frequency (308.15 K, x1 = 0.3512): 15.87 ± 0.06 | relative permittivity at zero frequency (308.15 K, x1 = 0.3977): 15.81 ± 0.06 | relative permittivity at zero frequency (308.15 K, x1 = 0.4497): 15.74 ± 0.06 | relative permittivity at zero frequency (308.15 K, x1 = 0.4998): 15.68 ± 0.06 | relative permittivity at zero frequency (308.15 K, x1 = 0.5501): 15.61 ± 0.06 | relative permittivity at zero frequency (308.15 K, x1 = 0.6011): 15.54 ± 0.06 | relative permittivity at zero frequency (308.15 K, x1 = 0.649): 15.47 ± 0.06 | relative permittivity at zero frequency (308.15 K, x1 = 0.7005): 15.4 ± 0.06 | relative permittivity at zero frequency (308.15 K, x1 = 0.7511): 15.32 ± 0.06 | relative permittivity at zero frequency (308.15 K, x1 = 0.7986): 15.25 ± 0.06 | relative permittivity at zero frequency (308.15 K, x1 = 0.8498): 15.17 ± 0.06 | relative permittivity at zero frequency (308.15 K, x1 = 0.9006): 15.09 ± 0.06 | relative permittivity at zero frequency (308.15 K, x1 = 0.9487): 15.01 ± 0.06 | relative permittivity at zero frequency (308.15 K, x1 = 1): 14.94 ± 0.06
